According to patent US4061630A, “7-Substituted-ureido-3-carbamoyloxymethyl cephalosporin antibiotics” (Eli Lilly and Company, priority 1976, dated 1977):
In brackets after ≈: the same amount, converted by molar mass.

Tests used:
[1] = test system: Salmonella heidelberg; experiment: in vitro antibiotic activity by the Gradient Plate method, Salmonella; format: cell-based; conditions: Salmonella enterica, read-out: Minimum Inhibitory Concentration vs. Salmonella heidelberg
Method: (§1) The antibiotic activity for these compounds is illustrated by the activity data in the following Table II. In the Table, the compounds designated by the groups R, R1 and R2 have reference to the following formula I [drawing 35] and the in vitro activity was determined by the Gradient Plate method.

[2] = test system: Enterobacter aerogenes; experiment: in vitro antibiotic activity by the Gradient Plate method, Enterobacter; format: cell-based; conditions: Klebsiella aerogenes, read-out: Minimum Inhibitory Concentration vs. Enterobacter aerogenes
Method: as §1

[3] = test system: Serratia marcescens; experiment: in vitro antibiotic activity by the Gradient Plate method, Serratia; format: cell-based; conditions: read-out: Minimum Inhibitory Concentration vs. Serratia marcescens
Method: as §1

[4] = test system: Klebsiella pneumoniae; experiment: in vitro antibiotic activity by the Gradient Plate method, Klebsiella; format: cell-based; conditions: read-out: Minimum Inhibitory Concentration vs. Klebsiella pneumoniae
Method: as §1

[5] = test system: Pseudomonas aeruginosa; experiment: in vitro antibiotic activity by the Gradient Plate method, Pseudomonas; format: cell-based; conditions: read-out: Minimum Inhibitory Concentration vs. Pseudomonas aeruginosa
Method: as §1

[6] = test system: Escherichia coli; experiment: in vitro antibiotic activity by the Gradient Plate method, E. coli; format: cell-based; conditions: read-out: Minimum Inhibitory Concentration vs. Escherichia coli
Method: as §1

[7] = test system: Shigella sp.; experiment: in vitro antibiotic activity by the Gradient Plate method, Shigella; format: cell-based; conditions: read-out: Minimum Inhibitory Concentration vs. Shigella sp.
Method: as §1

[8] = Titration 66 percent DMF; format: physicochemical; conditions: 66% dmf
Description: IR (KBr): 1770 cm^-1 (β-lactam carbonyl) U.V. (methanol): γ max 278 (ε17,921) Titration 66 percent DMF: pKa 4.98.

Row | Structure (SMILES) | MIC [1] [µg/mL] | MIC [2] [µg/mL] | MIC [3] [µg/mL] | MIC [4] [µg/mL] | MIC [5] [µg/mL] | MIC [6] [µg/mL] | MIC [7] [µg/mL] | pKa [8]
1 | CNC(=O)OCC1=C(C(=O)O)N2C(=O)C(NC(=O)C(NC(=O)N(C)C(=O)NC)c3ccccc3)C2SC1 (stereo not drawn) [7-[α-(3-Methylcarbamoyl-3-methyl-1-ureido)-α-phenylacetamido]-3-N-methylcarbamoyloxymethyl-3-cephem-4-carboxylic acid] | 8.5 (≈ 15.9 µM) | 19.5 (≈ 36.5 µM) | 42.5 (≈ 79.5 µM) | 7 (≈ 13.1 µM) | 30 (≈ 56.1 µM) | 15.5 (≈ 29 µM) | 5.5 (≈ 10.3 µM) | 
2 | CN(C(=O)C=Cc1ccccc1)C(=O)NC(C(=O)NC1C(=O)N2C(C(=O)O)=C(COC(N)=O)CSC12)c1ccccc1 (stereo not drawn) | 6.5 (≈ 10.9 µM) | 8 (≈ 13.5 µM) | 8 (≈ 13.5 µM) | 0.3 (≈ 0.505 µM) | 21.8 (≈ 36.7 µM) | 5.5 (≈ 9.27 µM) | 1 (≈ 1.68 µM) | 
3 | CNC(=O)N(C)C(=O)NC(C(=O)NC1C(=O)N2C(C(=O)O)=C(COC(N)=O)CSC12)c1ccccc1 (stereo not drawn) | 8.5 (≈ 16.3 µM) | 19.5 (≈ 37.5 µM) | 67.5 (≈ 130 µM) | 7.8 (≈ 15 µM) | 18.3 (≈ 35.2 µM) | 17.8 (≈ 34.2 µM) | 7 (≈ 13.4 µM) | 
4 | CNC(=O)N(C)C(=O)NC(C(=O)NC1C(=O)N2C(C(=O)O)=C(COC(N)=O)CSC12)c1ccc(O)cc1 (stereo not drawn) | 5 (≈ 9.32 µM) | 5.5 (≈ 10.3 µM) | 160 (≈ 298 µM) | 10 (≈ 18.6 µM) | 13.5 (≈ 25.2 µM) | 10 (≈ 18.6 µM) | 4.5 (≈ 8.39 µM) | 
5 | CNC(=O)NC(=O)NC(C(=O)NC1C(=O)N2C(C(=O)O)=C(COC(N)=O)CSC12)c1ccc(O)cc1 (stereo not drawn) | 12.5 (≈ 23.9 µM) | 18.5 (≈ 35.4 µM) | > 200 | 100 (≈ 191 µM) | 33.3 (≈ 63.7 µM) | 27.2 (≈ 52.1 µM) | 17.3 (≈ 33.1 µM) | 
6 | CNC(=O)NC(=O)NC(C(=O)NC1C(=O)N2C(C(=O)O)=C(COC(N)=O)CSC12)c1ccccc1 (stereo not drawn) | 30 (≈ 59.2 µM) | 65 (≈ 128 µM) | > 200 | 35 (≈ 69.1 µM) | 22.8 (≈ 45 µM) | 51.3 (≈ 101 µM) | 21.5 (≈ 42.4 µM) | 
7 | CS(=O)(=O)N1CCN(C(=O)NC(C(=O)NC2C(=O)N3C(C(=O)O)=C(COC(N)=O)CSC23)c2ccc(O)cc2)C1=O (stereo not drawn) | 4.8 (≈ 7.84 µM) | 10 (≈ 16.3 µM) | 100 (≈ 163 µM) | 5.5 (≈ 8.98 µM) | 47.5 (≈ 77.5 µM) | 10 (≈ 16.3 µM) | 4.3 (≈ 7.02 µM) | 
8 | NC(=O)OCC1=C(C(=O)O)N2C(=O)C(NC(=O)C(NC(=O)NC(=O)c3ccco3)c3ccc(O)cc3)C2SC1 (stereo not drawn) | 16 (≈ 28.6 µM) | 17.2 (≈ 30.7 µM) | 120 (≈ 214 µM) | 16 (≈ 28.6 µM) | 10 (≈ 17.9 µM) | 17.2 (≈ 30.7 µM) | 12.5 (≈ 22.3 µM) | 
9 | CN(C(=O)C=Cc1ccccc1)C(=O)N[C@@H](C(=O)NC1C(=O)N2C(C(=O)O)=C(COC(N)=O)CSC12)c1ccccc1 (stereo partly drawn) [Example 8, 7-[D-α-(3-Cinnamoyl-3-methyl-1-ureido)-α-phenylacetamido]-3-carbamoyloxymethyl-3-cephem-4-carboxylic acid] |  |  |  |  |  |  |  | 4.98
